The test system of one experiment is HDAC8. As to conditions: cited from earlier work.
Another experiment relates to HDAC2. As to conditions: cited from earlier work.
Another experiment relates to HDAC10. The conditions noted are these: cited from earlier work.
The test system of a further experiment is HDAC3. As to conditions: read-out: IC50 (HDAC3), cited from earlier work.
The next experiment deals with HDAC6. The conditions noted are these: cited from earlier work.
A further experiment has as its target T1, HDAC8wt (Homo sapiens, UniProt Q9BY41).
T1 sequence (Q9BY41 1-377): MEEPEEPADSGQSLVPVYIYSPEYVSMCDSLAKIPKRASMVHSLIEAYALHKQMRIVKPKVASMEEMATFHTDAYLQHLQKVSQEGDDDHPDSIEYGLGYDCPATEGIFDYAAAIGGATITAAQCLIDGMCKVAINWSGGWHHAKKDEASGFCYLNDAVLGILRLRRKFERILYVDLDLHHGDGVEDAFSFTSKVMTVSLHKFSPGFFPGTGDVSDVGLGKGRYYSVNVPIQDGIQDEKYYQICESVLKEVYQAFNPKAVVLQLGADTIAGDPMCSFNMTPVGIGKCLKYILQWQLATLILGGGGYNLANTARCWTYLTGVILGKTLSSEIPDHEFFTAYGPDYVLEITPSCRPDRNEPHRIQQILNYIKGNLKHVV
Kind of experiment: Enzyme activity assay, IC50 determination with Boc-Lys(TFA)-AMC.

The next experiment deals with HDAC4. As to conditions: cited from earlier work.
The next experiment deals with HDAC1. As to conditions: cited from earlier work.
A further experiment deals with T2, HDAC8M274A (Homo sapiens, UniProt Q9BY41, M274A).
T2 sequence (Q9BY41 1-377 M274A): T1 sequence (Q9BY41 1-377) with M274A
Briefly: Enzyme activity assay, IC50 determination with Boc-Lys(TFA)-AMC.

Experiment [1] deals with several cancer cell lines. On the set-up: method as in PMID 22907916. The conditions noted are these: ref [14]; cited from earlier work.
For the next experiment, the system named is HDAC11. On the set-up: method as in Huang et al. [14]. As to conditions: ref Huang et al. [14]; cited from earlier work.
Where [2] appears, read: ref Balasubramanian et al. [12].
Where [3] appears, read: TSA value of Figure 1, source not given.

Positions count from the first letter of the chain named. Read-outs that look alike come from different tables or passages of the source. Some results are limits rather than exact numbers.

Among the data in PMC9569839, “Methionine 274 Is Not the Determining Factor for Selective Inhibition of Histone Deacetylase 8 (HDAC8) by L-Shaped Inhibitors” (International Journal of Molecular Sciences, 2022) are IC50 and antiproliferative effects values, retold here.

A word on the IC50: it is the concentration at which inhibition is half-maximal.

On to `COc1ccc(Cn2ccc3ccc(C(=O)NO)cc32)cc1` [PCI-34051], for which the 50% inhibitory concentration (IC50) with HDAC8 (read-out: IC50-value (HDAC8), introduction text, ref [12],[13]) is […]; in the experiment with HDAC2 (setting [2]) it was […]; with HDAC10 (setting [2]), […]; in the experiment with HDAC3 (setting [2]), […].
As to `O=C(CCCCCCC(=O)Nc1ccccc1)NO` [SAHA, suberoylanilide hydroxamic acid], the IC50 in the experiment on HDAC6 (setting [2]) was 0.017 µM.
With `O=C(NO)c1cccc(-c2cn(CSc3ccccc3)nn2)c1` [NCC-149], the IC50 is 0.04 µM against HDAC8wt; 44 µM with HDAC4 (ref Suzuki et al. [13]); more than 100 µM with HDAC2 (ref Suzuki et al. [13]); 2.4 µM in the experiment with HDAC6 (ref Suzuki et al. [13]); 38 µM in the experiment with HDAC1 (ref Suzuki et al. [13]); 0.3 µM against HDAC8M274A. For the same compound, in the experiment with HDAC3 (ref Suzuki et al. [13]), the 50% inhibitory concentration (IC50) is more than 68 µM.
Turning to `CC(/C=C/C(=O)NO)=C\[C@@H](C)C(=O)c1ccc(N(C)C)cc1` [TSA, trichostatin A], the IC50 was 0.36 µM in the experiment with HDAC8 (read-out: IC50 (HDAC8), TSA value of Figure 1, source not given); 3.3 µM in the experiment with HDAC4 (setting [3]); […] in the experiment with HDAC2 (setting [3]); 0.017 µM in the experiment with HDAC6 (setting [3]); […] with HDAC1 (setting [3]).
For the compound `COc1ccc(/C=C/C(=O)NO)c(-c2ccc(-c3ccccc3)cc2)c1` [o-ACHA], the IC50 was more than 20 µM in the experiment with HDAC4 (ref Huang et al. [14]); more than 20 µM with HDAC2 (ref Huang et al. [14]); more than 20 µM in the experiment on HDAC11; more than 20 µM with HDAC6 (ref Huang et al. [14]); 3 µM in the experiment with HDAC1 (ref Huang et al. [14]); more than 20 µM in the experiment with HDAC10 (ref Huang et al. [14]). Besides, in the experiment on HDAC3 (ref Huang et al. [14]), the IC50 was 3 µM. Also, the antiproliferative effects entry in experiment [1] was “antiproliferative effects against several cancer cell lines”.
